Structures can show the parent of a compound that is named as a salt. Where two headings read alike, the source gives them in different places.
Tests used:
[1] = format: in vivo
Excerpt: In certain preferred embodiments, the opioid agonist is hydrocodone or oxycodone.

opioid receptors = details: daily dosage of 50 mg; cited from earlier work
[2] = after oral doses; cited from earlier work
[3] = following oral administration; cited from earlier work
[4] = cited from earlier work
[5] = in comparison to a 15 mg dose of hydrocodone

Row | Molecule | Equianalgesic dose, Calculated Dose [1, 5] [mg] | also measured
1 | CCC(=O)C(CC(C)N(C)C)(c1ccccc1)c1ccccc1 (stereo not drawn) [Methadone] | 9.0 | 
2 | O=C1CC[C@@]2(O)[C@H]3Cc4ccc(O)c5c4[C@@]2(CCN3CC2CC2)[C@H]1O5 [naltrexone] |  | blockade of the actions of parenterally administered opioids (opioid receptors): adequate clinical blockade; duration of action [2]: ~24 h; oral bioavailability [3]: 5-40%
3 | C[C@H]1[C@H]2Cc3ccc(O)cc3[C@]1(C)CCN2CC1CC1 [cyclazocine] |  | duration of action [2]: ~24 h
4 | O=C1CC[C@@]2(O)[C@H]3Cc4ccc(O)c5c4[C@@]2(CCN3CC2CC2)[C@H]1O5 [hydrochloride salt of naltrexone] |  | solubility in water [4]: about 100 mg/cc
5 | COc1ccc2c3c1O[C@H]1[C@@H](O)C=C[C@H]4[C@@H](C2)N(C)CC[C@@]341 [Codeine] | 90.0 | 
6 | COc1ccc2c3c1O[C@H]1C(=O)CC[C@@]4(O)[C@@H](C2)N(C)CC[C@]314 [Oxycodone, 4,5-expoxy-14-hydroxy-3-methoxy-17-methylmorphinan-6-one] | 13.5 | 
7 | CN1CC[C@]23CCCC[C@H]2[C@H]1Cc1ccc(O)cc13 [Levorphanol] | 1.8 | 
8 | Meperidine | 135.0 | 
9 | COc1ccc2c3c1OC1C(=O)CC[C@H]4[C@@H](C2)N(C)CC[C@]314 (stereo partly drawn) [Hydrocodone, 4,5-epoxy-3-methoxy-17-methylmorphinan-6-one] | 15.0 | 
10 | CN1CC[C@]23c4c5ccc(O)c4O[C@H]2[C@@H](O)C=C[C@H]3[C@H]1C5 [Morphine] |  | Equianalgesic dose, Calculated Dose ([1]; in vivo): 27.0 mg

Reference: patent US8518443B2, “Opioid agonist formulations with releasable and sequestered antagonist” (Purdue Pharma, L.P., priority 2001, dated 2013)
